This note sets out measurements from patent EP0423133B1, “ENZYMATIC RESOLUTION SYSTEMS AND COMPOUNDS USEFUL IN THE SYSTEMS AND THEIR REPARATIONS” (priority 1988, dated 1989).

One series deals with Prozyme 6. The series can be described thus: Homogeneous aqueous enzymatic resolution (ester hydrolysis) with enzyme F. Particulars: for % CONVERSION / % e.e.: 10 mmol ester in 100 ml 0.2 M buffer pH 7.0, 100 mg Prozyme 6 (F), 25 °C, 18 hours; for % e.e.: acid product, R. In kind it is biochemical, Aspergillus oryzae.
Series [1] in a line: Solubility by absorbance of saturated solutions at 262 nm. In kind it is physicochemical.
Another series relates to Protease XXIII. As to the kind of experiment: Homogeneous aqueous enzymatic resolution (ester hydrolysis) with enzyme A. The series is classed as biochemical, Aspergillus oryzae. Particulars: for enantiomeric excess: pH 7.5, 100 mg Protease XXIII (A). Here is the method: The enzymes used in Examples 6.2.1.1-6.2.1.17, 6.2.1.20-6.2.1.21, 6.2.1.23-6.2.1.28, 6.2.2.7, and 6.2.3.1-6.2.3.5 that follow were all proteases commercially available from Sigma Chemical Co., St. Louis, MO. […] For examples 6.2.2.5-6.2.2.6, Candida lipase obtained from Genzyme Corporation was used.
No further purification was performed.
The aqueous layer was retained.

The next series has as its system Protease XVI. As to the kind of experiment: Homogeneous aqueous enzymatic resolution (ester hydrolysis) with enzyme C. The conditions noted are these: 10.0 mmol ester in 100 ml 0.2 M phosphate buffer pH 7.0, 100 mg enzyme C, 20-22 °C, 20 hours; for % e.e.: acid product, R. In kind it is biochemical, Bacillus subtilis. The source says: (§1) The enzymes used in Examples 6.2.1.1-6.2.1.17, 6.2.1.20-6.2.1.21, 6.2.1.23-6.2.1.28, 6.2.2.7, and 6.2.3.1-6.2.3.5 that follow were all proteases commercially available from Sigma Chemical Co., St. Louis, MO. These proteases are listed in each example using the Sigma numbering system, which is summarized below: • Protease VIII: "Subtilopeptidase A", product P-5380 (also known as subtilisin Carlsberg) • Protease XIV: from Streptomyces griseus, product P-5147 • Protease XVI: from Bacillus subtilis, product P-8775 • Protease XXIII: from Aspergillus oryzae, product P-4032 • Protease XXVII: "Nagarse", product P-4789 • Protease XXIV: bacterial protease, product P-8038 An additional protease enzyme, which was designated Prozyme 6, was obtained from the Amano Enzyme Corporation and used in Examples 6.2.1.18-6.2.19, 6.2.1.22, 6.2.1.29-6.2.1.30 and 6.2.2.1-6.2.2.4 described below. A pig liver esterase was used in Example 6.21.11; this enzyme, obtained from Sigma Chemical Company, was designated as their product E-3128. For examples 6.2.2.5-6.2.2.6, Candida lipase obtained from Genzyme Corporation was used. Finally, Candida lipase, product L-1754, obtained from Sigma Chemical Co. was used in Example 6.2.2.7.

In series [2] the target is T1, Protease VIII: "Subtilopeptidase A" (Bacillus licheniformis, UniProt P00780).
T1 sequence (P00780 106-379): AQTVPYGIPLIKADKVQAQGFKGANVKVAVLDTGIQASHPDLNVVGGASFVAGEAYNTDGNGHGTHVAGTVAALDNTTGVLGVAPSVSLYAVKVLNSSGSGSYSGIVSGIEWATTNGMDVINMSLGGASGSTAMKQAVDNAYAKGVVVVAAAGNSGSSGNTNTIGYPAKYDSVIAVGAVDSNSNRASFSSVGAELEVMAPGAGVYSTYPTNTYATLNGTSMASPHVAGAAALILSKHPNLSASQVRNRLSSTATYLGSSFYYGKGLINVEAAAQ
The series can be described thus: Homogeneous aqueous enzymatic resolution (ester hydrolysis) with enzyme B. In kind it is biochemical. The conditions noted are these: for % e.e.: acid product.

For series [3], the system named is Candida lipase (Genzyme Corporation). As to the kind of experiment: Asymmetric hydrolysis in a multiphase membrane bioreactor with enzyme G. Particulars: neat liquid ester, pH 7.7. The series is classed as biochemical, Candida cylindracea. An excerpt:
The module was then drained.
This material was recrystallized from hexane.

Series [4] deals with T2, Protease XXVII: "Nagarse" (Bacillus amyloliquefaciens, UniProt P00782).
T2 sequence (P00782 108-382): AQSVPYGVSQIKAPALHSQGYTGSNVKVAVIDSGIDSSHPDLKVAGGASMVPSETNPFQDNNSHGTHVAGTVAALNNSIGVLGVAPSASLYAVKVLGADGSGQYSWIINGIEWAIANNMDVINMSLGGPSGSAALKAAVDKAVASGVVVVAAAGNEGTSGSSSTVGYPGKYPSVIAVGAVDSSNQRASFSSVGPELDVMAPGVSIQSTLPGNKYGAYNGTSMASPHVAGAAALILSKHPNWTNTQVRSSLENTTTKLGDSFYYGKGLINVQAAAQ
As to the kind of experiment: Homogeneous aqueous enzymatic resolution (ester hydrolysis) with enzyme D. In kind it is biochemical. Particulars: 0.010 mol ester in 100 ml 0.2 M sodium phosphate buffer pH 7.8, 150 mg enzyme D.
Excerpt: as §1

Where [5] appears, read: aqueous buffer, saturated solutions, pH 7 (50 mM phosphate buffer), room temperature, read-out: Solubility.
Where [6] appears, read: 10.0 mmol ester in 100 ml 0.2 M phosphate buffer pH 7.0, 100 mg enzyme A, 20-22 °C, 20 hours.
The mark [7] stands for this setting: acid product, R, 10.0 mmol ester in 100 ml 0.2 M phosphate buffer pH 7.0, 100 mg enzyme A, 20-22 °C, 20 hours.

≈ marks a conversion by molar mass, not a printed value. Counter-ions that a name gives are not always drawn. Like-named read-outs stand apart in the source and are kept apart here.

Turning to `COc1ccc2cc(C(C)C(=O)OCC[N+](C)(C)C)ccc2c1` (racemic) [Compound 11, Methyl Sulfate Salt of 2-(N,N,N-Trimethylammonium) ethyl Ester of 2-(6-Methoxy-2-naphthyl)propanoic Acid], in the series with Prozyme 6, the “% CONVERSION” value is listed as 24.3% and the “% e.e.” value was determined as 34.0%.
Turning to `CC(Oc1ccc(Cl)cc1)C(=O)OCS(=O)(=O)O` (racemic) [Compound 17, Sodium Salt of the Sulfomethyl Ester of 2-(4-Chlorophenoxy) propanoic Acid], in the series with Prozyme 6 (10 mmol ester in 100 ml 0.2 M sodium phosphate buffer pH 7.0, 35 mg Enzyme F, 30 °C, 1 hour), the completion of reaction is reported as 22.5%.
Turning to `CC(C)Cc1ccc(C(C)C(=O)OCC[N+](C)(C)C)cc1` (racemic) [Compound 10, Iodide Salt of 2-(N,N,N-Trimethylammonium)ethyl Ester of 2-(4-Isobutylphenyl) propanoic Acid], the solubility in series [1] (setting [5]) was determined as 2180 mM. The “% CONVERSION” value with Protease XXIII (setting [6]) amounted to 30.1%. In addition, in the series with Protease XXIII (setting [7]), the “% e.e.” value is more than 99%.
Turning to `CC(C)Cc1ccc(C(C)C(=O)OCCOP(=O)(O)O)cc1` (racemic) [Compound 5, Disodium Salt of the Phosphoric Acid Ester of the 2-Hydroxyethyl Ester of 2-(4-Isobutylphenyl) propanoic Acid], in the series with Protease XVI, the “% CONVERSION” value came to 5.3% and the “% e.e.” value is reported as 75.6%.
With `COCCOC(=O)C(C)c1ccc(CC(C)C)cc1` (stereo not shown) [Methoxyethyl ester of ibuprofen], the solubility in series [1] (setting [5]) came out at 0.18 mM (≈ 47.6 µg/mL).
Regarding `CC(CSC(=O)c1ccccc1)C(=O)OCS(=O)(=O)O` (racemic) [Compound 16, Potassium Salt of the Sulfomethyl Ester of (±)-S-3-Benzoylthio-2-methylpropanoic Acid], the “% CONVERSION” value amounted to 53% in the series on Protease XXIII (10.0 mmol ester in 100 ml 0.2 M buffer pH 7.0, 100 mg enzyme A, 25 °C, 18 hours) and 26% in series [2] (10.0 mmol ester in 100 ml 0.2 M buffer pH 7.0, 100 mg enzyme B, 25 °C, 18 hours). Also, the “% e.e.” value in the series with Protease XXIII (acid product, S, 10.0 mmol ester in 100 ml 0.2 M buffer pH 7.0, 100 mg enzyme A, 25 °C, 18 hours) was 3%; in series [2] (S, 10.0 mmol ester in 100 ml 0.2 M buffer pH 7.0, 100 mg enzyme B, 25 °C, 18 hours), 10%.
For `CC(C)Cc1ccc(C(C)C(=O)OCCN(C)C)cc1` (stereo not shown) [2-(N,N-dimethylamino)ethyl ester of ibuprofen], the solubility in series [1] (setting [5]) worked out at 10 mM (≈ 2770 µg/mL).
On to `CC(C)Cc1ccc(C(C)C(=O)OCCCCS(=O)(=O)O)cc1` (racemic) [Compound 4, Potassium Salt of 4-Sulfobutyl Ester of 2-(4-Isobutylphenyl) propanoic Acid], for which the solubility in series [1] (setting [5]) turned out to be 1130 mM. Besides, the “% CONVERSION” value with Protease XXIII (setting [6]) was determined as 43.2%; in series [2] (10.0 mmol ester in 100 ml 0.2 M phosphate buffer pH 7.0, 100 mg enzyme B, 20-22 °C, 20 hours), 20.0%; in the series on Protease XVI, 22.0%. Moreover, the “% e.e.” value amounted to 97.4% with Protease XXIII (setting [7]); 92.1% in series [2] (R, 10.0 mmol ester in 100 ml 0.2 M phosphate buffer pH 7.0, 100 mg enzyme B, 20-22 °C, 20 hours); 61.7% in the series on Protease XVI.
As for `CC(Cl)C(=O)OCCCS(=O)(=O)O` (racemic) [Compound 13, Potassium Salt of 3-Sulfopropyl Ester of 2-Chloropropanoic Acid], the “conversion as measured by titrimetry” value in series [2] (8.05 gm ester in 300 ml 0.1 M potassium phosphate buffer pH 7.0, 20 mg subtilisin protease (B), point at which the reaction was stopped) worked out at 25%.
As to `CC(C)Cc1ccc(C(C)C(=O)OCCCOS(=O)(=O)O)cc1` (racemic) [Compound 6, Potassium Salt of the Sulfuric Acid Ester of 3-Hydroxypropyl Ester of 2-(4-Isobutylphenyl) propanoic Acid], the “% CONVERSION” value in the series on Protease XXIII (setting [6]) is listed as 24.3%. Further, the “% e.e.” value in the series on Protease XXIII (setting [7]) is 96.5%.
Turning to `COc1ccc2cc(C(C)C(=O)OCS(=O)(=O)O)ccc2c1` (racemic) [Compound 9, Sodium Salt of Sulfomethyl Ester of 2-(6-Methoxy-2-naphthyl) propanoic Acid], the “conversion (enzymatic hydrolysis)” value with Protease XXIII (2.0 gm ester in 400 ml 50 mM sodium phosphate buffer pH 7.5, 100 mg Protease XXIII (A), 25 degrees, 16 hours) is 18%. The enantiomeric excess came out at 61.2% in the series with Protease XXIII (R isomer of naproxen, acid product, 16 hours) and 45.5% with Protease XXIII (S isomer of Naproxen from chemical hydrolysis (pH 12) of the unconverted ester, 16 hours).
On to `COc1ccc2cc(C(C)C(=O)OCCC[N+](C)(C)C)ccc2c1` (racemic) [Compound 12, Methyl Sulfate Salt of 3-(N,N,N-Trimethylammonium) propyl Ester of 2-(6-Methoxy-2-naphthyl)propanoic Acid], for which, in series [1] (setting [5]), the solubility was determined as 1610 mM. In the series with Prozyme 6, the “% CONVERSION” value was 34.0% and the “% e.e.” value was 21.6%.
Regarding `CC(C)Cc1ccc(C(C)C(=O)OCC(F)(F)F)cc1` (racemic) [Compound 19, 2,2,2-Trifluoroethyl Ester of 2-(4-Isobutylphenyl)propanoic Acid], the solubility in series [1] (setting [5]) is 0.4 mM (≈ 115 µg/mL); in series [1] (water, as stated in the text of the examples, read-out: water solubility), approximately 0.4 mM (≈ 115 µg/mL). In series [3] (first 60 minutes, 3.0 grams Candida lipase in membrane), the average hydrolytic rate was 160 amol/min. The compound also yielded an average hydrolysis rate in series [3] (over the next 76 hours, by titrimetry) of 21 µmol/min. The conversion to acid result in series [3] (over the next 76 hours) is reported as “about 9.8%”.
On to `CC(C)Cc1ccc(C(C)C(=O)OCCCS(=O)(=O)O)cc1` (racemic) [Compound 3, Potassium Salt of 3-Sulfopropyl Ester of 2-(4-Isobutylphenyl) propanoic Acid], for which the “% CONVERSION” value in the series on Protease XXIII (setting [6]) turned out to be 50.0%; with Protease XXIII (0.010 mol ester in 100 ml 0.2 M sodium phosphate buffer pH 7.8, 150 mg enzyme A), 47.1%; in series [2] (0.010 mol ester in 100 ml 0.2 M sodium phosphate buffer pH 7.8, 150 mg enzyme B), 36.4%; in series [4], 32.0%. In addition, the “conversion of the racemic ester to acid” value with Protease XXIII (about 1 M ester, 40 ml, 0.1 M potassium phosphate pH 7.0, 1.00 gm protease (A), 23.9 hours at room temperature, by hydroxide titration) came to 29%. Besides, the “% e.e.” value in the series with Protease XXIII (setting [7]) is given as 84.2%; in the series with Protease XXIII (acid product, R, 0.010 mol ester in 100 ml 0.2 M sodium phosphate buffer pH 7.8, 150 mg enzyme A) it was 97.7%; in series [2] (R, 0.010 mol ester in 100 ml 0.2 M sodium phosphate buffer pH 7.8, 150 mg enzyme B) it was 98.6%; in series [4] (acid product, R) it was 91.0%.
With `CC(C)Cc1ccc(C(C)C(=O)OCCS(=O)(=O)O)cc1` (racemic) [Compound 2, Sodium Salt of 2-Sulfoethyl Ester of 2-(4-Isobutylphenyl) propanoic Acid], the “% CONVERSION” value in the series with Protease XXIII (setting [6]) stood at 22.3%. Further, in the series on Protease XXIII (setting [7]), the “% e.e.” value worked out at 93.3%.

What is called solubility is the concentration that dissolves in the medium under given conditions.
